Measured values reported in patent US9718790B2, “Triazine derivative and pharmaceutical composition having an analgesic activity comprising the same” (SHIONOGI & CO., LTD., priority 2010, dated 2017).
“And” between values parts separate entries of the source, which are not always exact repeats. Identical values can stand only once.

target: human P2X3 receptor (Homo sapiens (Human), UniProt P56373); test: Evaluation of human P2X3 receptor inhibitory activity (Fluo-3 calcium fluorescence, FDSS 3000, ATP stimulation); type: cell-based; conditions: C6BU-1 cells stably expressing human P2X3 receptor;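 note: stimulus was 50 nM ATP with fluorescence followed for 3 min, and the response per well was peak post-ATP fluorescence divided by the reading at measurement start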
Sequence (P56373 whole entry): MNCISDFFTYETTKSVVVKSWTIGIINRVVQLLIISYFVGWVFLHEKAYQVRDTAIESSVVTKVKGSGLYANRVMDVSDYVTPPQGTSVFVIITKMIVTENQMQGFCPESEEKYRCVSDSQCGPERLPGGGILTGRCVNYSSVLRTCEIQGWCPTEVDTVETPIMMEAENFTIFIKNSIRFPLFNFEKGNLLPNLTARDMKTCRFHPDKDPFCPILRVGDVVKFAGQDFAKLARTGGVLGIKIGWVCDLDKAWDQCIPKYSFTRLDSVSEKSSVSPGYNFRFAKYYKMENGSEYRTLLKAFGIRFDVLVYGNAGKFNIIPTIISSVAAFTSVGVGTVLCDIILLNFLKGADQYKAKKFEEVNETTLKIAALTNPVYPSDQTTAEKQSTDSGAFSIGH

Row | Compound | IC50
1 | CNC(=O)CCn1c(=O)[nH]/c(=N\c2ccc(OC3CCC3)cc2)n(Cc2ccc(Cl)cc2)c1=O [Compound I-1913] | 19 nM
2 | COC(=O)[C@@H](C)Cn1c(=O)[nH]/c(=N\c2ccc(NC(=O)C(C)C)c(Cl)c2)n(Cc2ccc(C)cc2)c1=O [Compound I-1419] | 304 nM
3 | Cc1ccc(Cn2c(=O)n(CC3(C(=O)O)CC3)c(=O)[nH]/c2=N\c2ccc(CC(C)C)c(Cl)c2)cc1 [Compound I-1451] | 5 nM
4 | CCOc1ccc2cc(/N=c3\[nH]c(=O)n(CCC(=O)O)c(=O)n3Cc3ccc(C)cc3)ccc2c1 [Compound I-2130] | 790 nM
5 | CC(C)(Cn1c(=O)[nH]/c(=N\c2ccc(OCC3CC3)cc2)n(Cc2ccc(Cl)cc2)c1=O)C(=O)O [Compound I-1263] | 25 nM
6 | Cc1ccc(Oc2ccc(/N=c3\[nH]c(=O)n(CC(=O)NCCO)c(=O)n3Cc3ccc(Cl)cc3)cc2)cn1 [Compound I-1980] | 7 nM
7 | CCCOc1ccc(/N=c2\[nH]c(=O)n([C@H](C)[C@H](C)C(=O)O)c(=O)n2Cc2ccc(C)cc2)cc1 [Compound I-1340] | 57 nM
8 | CNC(=NC#N)NCCn1c(=O)[nH]/c(=N\c2ccc(OC(C)C)c(F)c2)n(Cc2ccc(Cl)cc2)c1=O [Compound I-0653, 1-(4-chlorobenzyl)-6-(3-fluoro-4-isopropoxyphenylimino)-3-(4-cyanoimino-4-methylamino-3-azabutyl)-1,3,5-triazinane-2,4-dion] | 37 nM
9 | Cc1ccc(Oc2ccc(/N=c3\[nH]c(=O)n(CCC(=O)O)c(=O)n3Cc3ccc(Cl)cc3)cc2)cn1 [Compound I-1357] | 25 nM
10 | CCOc1ccc(/N=c2\[nH]c(=O)n(C[C@H](C)C(=O)OC)c(=O)n2Cc2ccc(C)cc2)cc1Cl [Compound I-0678] | 8 nM
11 | CC1CCC(Cn2c(=O)n(CCO)c(=O)[nH]/c2=N\c2ccc(Oc3ccnc(O)c3)cc2)CC1 (centres unmarked) [Compound I-2022] | 7 nM
12 | Cc1ccc(Cn2c(=O)n([C@@H](C)[C@@H](C)C(=O)O)c(=O)[nH]/c2=N\c2cccc(C(F)(F)F)c2)cc1 [Compound I-1335] | 30 nM
13 | COC(=O)[C@@H](C)Cn1c(=O)[nH]/c(=N\c2ccc(OC(C)C)c(C)c2)n(Cc2ccc(F)cc2)c1=O [Compound I-0625] | 66 nM
14 | CCn1c(=O)[nH]/c(=N\c2ccc(Oc3ccnc(N)c3)cc2)n(Cc2ccc(Cl)cc2)c1=O [Compound I-2166] | 10 nM
15 | CCOC(=O)CCn1c(=O)[nH]/c(=N\c2ccc(OC3CCC3)c(C)c2)n(Cc2ccc(Cl)cc2)c1=O [Compound I-1401] | 22 nM
16 | CCn1c(=O)[nH]/c(=N\c2ccc(Oc3ncc(C(=O)O)o3)cc2)n(Cc2ccc(Cl)cc2)c1=O [Compound I-2189] | 47 nM and 51 nM
17 | CCOC(=O)CCn1c(=O)[nH]/c(=N\c2ccc(Oc3cccnc3)cc2)n(Cc2ccc(C)cc2)c1=O [Compound I-1229] | 4 nM
18 | CCc1nc2ccc(/N=c3\[nH]c(=O)n(CCCCC(=O)OC)c(=O)n3Cc3ccc(Cl)cc3)cc2s1 [Compound I-2183] | 1 nM
19 | Cc1nc2ccc(/N=c3\[nH]c(=O)n(CCCC(=O)O)c(=O)n3Cc3ccc(Cl)cc3)cc2s1 [Compound I-2143] | 23 nM
20 | Cc1oc2ccc(/N=c3\[nH]c(=O)n(CCCOC4CCCCO4)c(=O)n3Cc3ccc(Cl)cc3)cc2c1C (centres unmarked) [Compound I-2073] | 10 nM
21 | COc1cc(/N=c2\[nH]c(=O)n(C[C@H](C)C(=O)O)c(=O)n2Cc2ccc(C)cc2)ccc1Br [Compound I-1244] | 473 nM
22 | CCOC(=O)CCCn1c(=O)[nH]/c(=N\c2ccc(O)cc2)n(Cc2ccc(C)cc2)c1=O [Compound I-1239] | 732 nM
23 | COC(=O)c1cccc(Oc2ccc(/N=c3\[nH]c(=O)[nH]c(=O)n3Cc3ccc(Cl)cc3)cc2)c1 [Compound I-1919] | 214 nM
24 | CCn1c(=O)[nH]/c(=N\c2ccc(Oc3cncc(C(N)=O)c3)cc2)n(Cc2ccc(Cl)cc2)c1=O [Compound I-1996] | 4 nM

same assay, conditions: C6BU-1 cells stably expressing human P2X3 receptor, Fluo-3 fluorescence, FDSS 3000

Row | Compound | IC50
25 | CCCc1nc2ccc(/N=c3\[nH]c(=O)n(CCC(=O)O)c(=O)n3Cc3ccc(C)cc3)cc2s1 [Compound I-1560] | 51 nM
26 | C[C@@H](C(=O)O)[C@H](C)n1c(=O)[nH]/c(=N\c2ccc3nc(C(F)(F)F)[nH]c3c2)n(Cc2ccc(Cl)cc2)c1=O [Compound I-1794] | 380 nM
27 | CCc1oc2ccc(/N=c3\[nH]c(=O)n(CC(C)(C)C(=O)OC)c(=O)n3Cc3ccc(Cl)cc3)cc2c1C [Compound I-1574] | 18 nM
28 | CCc1oc2ccc(/N=c3\[nH]c(=O)n(C[C@H](O)CO)c(=O)n3Cc3ccc(Cl)cc3)cc2c1C [Compound I-1624] | 8 nM
29 | C=C(C)c1ccc(Cn2c(=O)n(C[C@H](C)C(=O)O)c(=O)[nH]/c2=N\c2ccc(OC(C)C)c(C)c2)cc1 [Compound I-1001] | 292 nM
30 | Cc1ccc(Cn2c(Nc3ccc(OC(C)C)cc3)nc(=O)n(C(C)C)c2=O)cc1[N+](=O)[O-] [Compound I-0218] | 505 nM
31 | Cc1cc(Oc2ccc(/N=c3\[nH]c(=O)n(CCCO)c(=O)n3Cc3ccc(Cl)cc3)cc2)no1 [Compound I-1835] | 8 nM
32 | Cc1ccc(Cn2c(=O)n(CCC(=O)NS(C)(=O)=O)c(=O)[nH]/c2=N\c2ccc(OC(C)C)c(Cl)c2)cc1 [Compound I-1874] | 13 nM
33 | COC(=O)[C@@H](C)Cn1c(=O)[nH]/c(=N\c2ccc(C3CCCCC3)cc2)n(Cc2ccc(C)cc2)c1=O [Compound I-1087] | 71 nM
34 | Cc1nc2ccc(/N=c3\[nH]c(=O)n(CCC(CO)CO)c(=O)n3Cc3ccc(Cl)cc3)cc2s1 [Compound I-1853] | 4 nM
35 | CC(C)Oc1ccc(/N=c2\[nH]c(=O)n([C@@H](C)[C@@H](C)C(=O)O)c(=O)n2Cc2ccc(Cl)cc2)cc1Cl [Compound I-0923] | 15 nM
36 | C[C@@H](Oc1ccc(/N=c2\[nH]c(=O)n(CC(CO)CO)c(=O)n2Cc2ccc(Cl)cc2)cc1)C(F)(F)F [Compound I-1882] | 16 nM
37 | CCc1oc2ccc(/N=c3\[nH]c(=O)n(CC(C)(C)C(=O)O)c(=O)n3Cc3ccc(Cl)cc3)cc2c1C [Compound I-1581] | 7 nM
38 | NC(=O)c1cc(Oc2ccc(/N=c3\[nH]c(=O)[nH]c(=O)n3Cc3ccc(Cl)cc3)cc2)ccn1 [Compound I-1896] | 14 nM
39 | Cc1cc(/N=c2\[nH]c(=O)n(CCC(=O)O)c(=O)n2Cc2ccc(Cl)cc2)ccc1OC(C)C [Compound I-1157] | 52 nM
40 | Cc1ccc(Cn2c(=O)n(C[C@H](C)C(=O)O)c(=O)[nH]/c2=N\c2ccc(OCCC(C)C)cc2)cc1 [Compound I-1063] | 152 nM
41 | COC(=O)[C@@H](C)Cn1c(=O)[nH]/c(=N\c2ccc3oc(C)c(C)c3c2)n(Cc2ccc(Cl)cc2)c1=O [Compound I-1650] | 9 nM
42 | C=Cc1cc(/N=c2\[nH]c(=O)n(C[C@H](C)C(=O)OC)c(=O)n2Cc2ccc(C)cc2)ccc1OC(C)C [Compound I-0907, (S)-1-(4-methylbenzyl)-6-(3-vinyl-4-isopropoxyphenylimino)-3-(2-methoxycarbonylpropyl)-1,3,5-triazinane-2,4-dion] | 7 nM

same assay, conditions: human P2X3 receptor, Test Example 1

Row | Compound | IC50
43 | CC[C@@H](C)Oc1ccc(/N=c2\[nH]c(=O)n(C[C@H](C)C(=O)O)c(=O)n2Cc2ccc(C)cc2)cc1C [Compound I-0853] | 13 nM
44 | O=c1[nH]/c(=N\c2ccc(Oc3ccon3)cc2)n(Cc2ccc(Cl)cc2)c(=O)n1CCOCCO [Compound I-2490] | 10 nM
45 | CC[C@H](C)n1c(=O)[nH]/c(=N\c2ccc(Oc3ccnc(C(=O)O)c3)cc2)n(Cc2ccc(Cl)cc2)c1=O [Compound I-2480] | 6 nM
46 | CCn1c(=O)[nH]/c(=N\c2ccc(Oc3ccc(C(=O)OC)nn3)cc2)n(C[C@H]2CC[C@H](C)CC2)c1=O [Compound I-2701] | 1 nM
47 | CCn1c(=O)[nH]/c(=N\c2ccc(Oc3cccc(C(N)=O)n3)cc2)n(C[C@H]2CC[C@H](C)CC2)c1=O [Compound I-2497] | 1 nM
48 | O=c1[nH]/c(=N\c2ccc(Oc3cccc(F)n3)cc2)n(Cc2ccc(Cl)cc2)c(=O)n1CCO [Compound I-2516] | 9 nM
49 | Cc1ccc(Cn2c(=O)n(CCC(=O)O)c(=O)[nH]/c2=N\c2c(Cl)ccc(C(F)(F)F)c2C)cc1 [Compound I-2090] | < 4 nM
50 | CCCOc1ccc(/N=c2\[nH]c(=O)n(C(C)(C)CC(=O)O)c(=O)n2Cc2ccc(Cl)cc2)cc1 [Compound I-0829] | 216 nM
51 | CCn1c(=O)[nH]/c(=N\c2ccc(Sc3ccc(C(=O)O)cc3)cc2)n(Cc2ccc(Cl)cc2)c1=O [Compound I-2603] | 125 nM
52 | CCn1c(=O)[nH]/c(=N\c2ccc(Oc3ccc(C(=O)O)cn3)cc2)n(Cc2ccc(Cl)cc2)c1=O [Compound I-2320] | 6 nM
53 | Cc1cc(/N=c2\[nH]c(=O)n(C[C@H](O)C(=O)O)c(=O)n2Cc2ccc(Cl)cc2)ccc1OC(C)C [Compound I-0852, (S)-1-(4-chlorobenzyl)-6-(3-mehyl-4-isopropoxyphenylimino)-3-(2-hydroxycarbonyl-2-hydroxyethyl)-1,3,5-triazinane-2,4-dion] | 38 nM
54 | CCOC(=O)C1(Cn2c(=O)[nH]/c(=N\c3ccc4nc(CC)sc4c3)n(Cc3ccc(C)cc3)c2=O)CC1 [Compound I-1547] | 3 nM
55 | CC1(C)OCC(Cn2c(=O)[nH]/c(=N\c3ccc(Oc4ccon4)cc3)n(Cc3ccc(Cl)cc3)c2=O)CO1 [Compound I-2287] | < 4 nM
56 | CCn1c(=O)[nH]/c(=N\c2ccc(Oc3ncccc3C(=O)O)cc2)n(Cc2ccc(Cl)cc2)c1=O [Compound I-2366] | 90 nM
57 | NC(=O)CCn1c(=O)[nH]/c(=N\c2ccc(Oc3ncccn3)cc2)n(Cc2ccc(Cl)cc2)c1=O [Compound I-2565] | 17 nM
58 | COC(=O)[C@@H](C)Cn1c(=O)[nH]/c(=N\c2ccc(OCC(F)F)cc2)n(Cc2ccc(C)cc2)c1=O [Compound I-0847] | 31 nM
59 | O=c1[nH]/c(=N\c2ccc(Oc3nccs3)cc2)n(Cc2ccc(Cl)cc2)c(=O)n1CC(CO)CO [Compound I-2437] | 6 nM
60 | NC(=O)NC(=O)Cn1c(=O)[nH]/c(=N\c2ccc(Oc3ccon3)cc2)n(Cc2ccc(Cl)cc2)c1=O [Compound I-2694] | 3 nM
61 | CCn1c(=O)[nH]/c(=N\c2ccc(Oc3cccc(C#N)n3)c(OC)c2)n(Cc2ccc(Cl)cc2)c1=O [Compound I-2387] | 2 nM
62 | CCn1c(=O)[nH]/c(=N\c2ccc(Oc3cc(C(=O)O)sn3)cc2)n(Cc2ccc(Cl)cc2)c1=O [Compound I-2249] | 6 nM
